Measurements taken from USRE39591E1, “6-O-substituted ketolides having antibacterial activity” (Abbott Laboratories, priority 1996, dated 2007).
In brackets after ≈: the same amount, converted by molar mass.

Test system: up to 32 different microorganisms
Assay: in vitro antibacterial activity (MIC), agar dilution on Brain Heart Infusion (BHI) agar with Steers replicator
Type: cell-based
Conditions: unit assumed
Method in brief: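 Erythromycin A served as the same-class reference for test-to-test comparability. Test compound was tested over twelve successive dilutions in BHI agar; plates were incubated 20 to 24 hours at 35°-37° C, with MIC taken as the lowest concentration showing no growth, slight haze, or sparse colonies.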

CC[C@H]1OC(=O)[C@H](C)C(=O)[C@H](C)[C@@H](O[C@@H]2O[C@H](C)C[C@H](N(C)C)[C@H]2O)[C@@](C)(OCC2COC(C)(C)O2)C[C@@H](C)C(=O)[C@H](C)[C@H]2NC(=O)O[C@@]21C (stereo partly shown) [Example 259, Compound of Formula (IX): L is CO, T is NH, R is —CH2-(2,2-dimethyl-1,3-dioxolan-4-yl)]
MIC (organism code AA): 6.2 µg/mL
MIC (organism code BB): 6.2 µg/mL
MIC (organism code CC): > 100 µg/mL
MIC (organism code DD): 12.5 µg/mL
MIC (organism code EE): 6.2 µg/mL
MIC (organism code FF): 6.2 µg/mL
MIC (organism code GG): > 100 µg/mL
MIC (organism code HH): 6.2 µg/mL
MIC (organism code II): 0.78 µg/mL
MIC (organism code JJ): 0.39 µg/mL
MIC (organism code KK): 0.78 µg/mL
MIC (organism code LL): 0.39 µg/mL
MIC (organism code MM): > 100 µg/mL
MIC (organism code NN): 1.56 µg/mL
MIC (organism code OO): 0.78 µg/mL
MIC (organism code PP): 1.56 µg/mL
MIC (organism code QQ): > 100 µg/mL
MIC (organism code RR): 1.56 µg/mL
MIC (organism code SS): > 100 µg/mL
MIC (organism code TT): > 100 µg/mL
MIC (organism code UU): 12.5 µg/mL
MIC (organism code VV): 3.1 µg/mL
MIC (organism code WW): 128 µg/mL
MIC (organism code XX): 1 µg/mL
MIC (organism code YY): 1 µg/mL
MIC (organism code ZZ): > 128 µg/mL
MIC (organism code ZZA): 4 µg/mL

CCC1OC(=O)C(C)C(=O)C(C)C(OC2OC(C)CC(N(C)C)C2O)C(C)(OCC=Cc2ccc3ncc(-c4cccnc4)cc3c2)CC(C)C(=O)C(C)C2NC(=O)OC12C (stereo not shown) [Example 274]
MIC (organism code AA): 0.1 µg/mL (≈ 0.119 µM)
MIC (organism code BB): 0.1 µg/mL (≈ 0.119 µM)
MIC (organism code CC): > 100 µg/mL
MIC (organism code DD): 0.1 µg/mL (≈ 0.119 µM)
MIC (organism code EE): 0.1 µg/mL (≈ 0.119 µM)
MIC (organism code FF): 0.05 µg/mL (≈ 0.0593 µM)
MIC (organism code GG): > 100 µg/mL
MIC (organism code HH): 0.1 µg/mL (≈ 0.119 µM)
MIC (organism code II): 0.05 µg/mL (≈ 0.0593 µM)
MIC (organism code JJ): 0.01 µg/mL (≈ 0.0119 µM)
MIC (organism code KK): 0.01 µg/mL (≈ 0.0119 µM)
MIC (organism code LL): 0.01 µg/mL (≈ 0.0119 µM)
MIC (organism code MM): 6.2 µg/mL (≈ 7.35 µM)
MIC (organism code NN): 0.1 µg/mL (≈ 0.119 µM)
MIC (organism code OO): 0.01 µg/mL (≈ 0.0119 µM)
MIC (organism code PP): 0.1 µg/mL (≈ 0.119 µM)
MIC (organism code QQ): > 100 µg/mL
MIC (organism code RR): 0.2 µg/mL (≈ 0.237 µM)
MIC (organism code SS): > 100 µg/mL
MIC (organism code TT): > 100 µg/mL
MIC (organism code UU): 0.78 µg/mL (≈ 0.925 µM)
MIC (organism code VV): 0.05 µg/mL (≈ 0.0593 µM)
MIC (organism code WW): 4 µg/mL (≈ 4.74 µM)
MIC (organism code XX): ≤ 0.004 µg/mL
MIC (organism code YY): ≤ 0.004 µg/mL
MIC (organism code ZZ): 8 µg/mL (≈ 9.49 µM)
MIC (organism code ZZA): 0.25 µg/mL (≈ 0.297 µM)

CCC1OC(=O)C(C)C(=O)C(C)C(OC2OC(C)CC(N(C)C)C2O)C(C)(OCC=Cc2cccc([N+](=O)[O-])c2)CC(C)C(=O)C(C)C2NC(=O)OC12C (stereo not shown) [Example 193, R is —CH2CH═CH-(3-nitrophenyl)]
MIC (Candida albicans CCH 442 (code TT)): > 100 µg/mL
MIC (Enterococcus faecism ATCC 8043 (code II)): 0.02 µg/mL (≈ 0.0263 µM)
MIC (Escherichia coli DC-2 (code SS)): > 100 µg/mL
MIC (Escherichia coli JUHL (code QQ)): 100 µg/mL (≈ 132 µM)
MIC (Escherichia coli SS (code RR)): 0.2 µg/mL (≈ 0.263 µM)
MIC (Micrococcus luteus ATCC 4698 (code PP)): 0.1 µg/mL (≈ 0.132 µM)
MIC (Micrococcus luteus ATCC 9341 (code OO)): 0.01 µg/mL (≈ 0.0132 µM)
MIC (Mycobacterium smegmatis ATCC 114 (code UU)): 0.39 µg/mL (≈ 0.513 µM)
MIC (Nocardia Asteroides ATCC9970 (code VV)): 0.05 µg/mL (≈ 0.0658 µM)
MIC (Staphylococcus aureus 1775 (code GG)): > 100 µg/mL
MIC (Staphylococcus aureus A5177 (code BB)): 0.1 µg/mL (≈ 0.132 µM)
MIC (Staphylococcus aureus A-5278 (code CC)): > 100 µg/mL
MIC (Staphylococcus aureus ATCC 6538P (code AA)): 0.05 µg/mL (≈ 0.0658 µM)
MIC (Staphylococcus aureus CMX 553 (code FF)): 0.1 µg/mL (≈ 0.132 µM)
MIC (Staphylococcus aureus CMX 642A (code DD)): 0.1 µg/mL (≈ 0.132 µM)
MIC (Staphylococcus aureus NCTC10649M (code EE)): 0.1 µg/mL (≈ 0.132 µM)
MIC (Staphylococcus epidermidis 3519 (code HH)): 0.1 µg/mL (≈ 0.132 µM)
MIC (Streptococcus agalactiae CMX 508 (code KK)): 0.01 µg/mL (≈ 0.0132 µM)
MIC (Streptococcus bovis A-5169 (code JJ)): 0.01 µg/mL (≈ 0.0132 µM)
MIC (Streptococcus pyogenes 930 (code MM)): 25 µg/mL (≈ 32.9 µM)
MIC (Streptococcus pyogenes EES61 (code LL)): ≤ 0.005 µg/mL
MIC (Streptococcus pyogenes PIU 2548 (code NN)): 0.05 µg/mL (≈ 0.0658 µM)

CC[C@H]1OC(=O)[C@H](C)C(=O)[C@H](C)[C@@H](O[C@@H]2O[C@H](C)C[C@H](N(C)C)[C@H]2O)[C@@](C)(OCC=NOc2ccccc2)C[C@@H](C)C(=O)[C@H](C)[C@H]2NC(=O)O[C@@]21C [Example 228, Compound of Formula (IX): L is CO, T is NH, R is —CH2CH═NO(phenyl)]
MIC (organism code AA): 0.39 µg/mL
MIC (organism code BB): 0.78 µg/mL
MIC (organism code CC): > 100 µg/mL
MIC (organism code DD): 0.78 µg/mL
MIC (organism code EE): 0.78 µg/mL
MIC (organism code FF): 0.78 µg/mL
MIC (organism code GG): > 100 µg/mL
MIC (organism code HH): 0.78 µg/mL
MIC (organism code II): 0.1 µg/mL
MIC (organism code JJ): 0.02 µg/mL
MIC (organism code KK): ≤ 0.005 µg/mL
MIC (organism code LL): 0.01 µg/mL
MIC (organism code MM): 25 µg/mL
MIC (organism code NN): 0.78 µg/mL
MIC (organism code OO): 0.2 µg/mL
MIC (organism code PP): 0.39 µg/mL
MIC (organism code QQ): > 100 µg/mL
MIC (organism code RR): 0.78 µg/mL
MIC (organism code SS): > 100 µg/mL
MIC (organism code TT): > 100 µg/mL
MIC (organism code UU): 3.1 µg/mL
MIC (organism code VV): 0.78 µg/mL
MIC (organism code WW): 8 µg/mL
MIC (organism code XX): 0.125 µg/mL
MIC (organism code YY): 0.125 µg/mL
MIC (organism code ZZ): > 128 µg/mL
MIC (organism code ZZA): 1 µg/mL
